Data published in ChEMBL document CHEMBL4346718, “Cucurbitacins inspired organic synthesis: Potential dual inhibitors targeting EGFR - MAPK pathway” (Eur J Med Chem, 2019).
Values belong to the molecule of their own block, whether it stands above or below them. The source made the active and inactive calls. The rule behind the calls is not given here.

Columns and labels:
[1] = tested on: HepG2; test: Antiproliferative activity against human HepG2 cells assessed as reduction in cell growth incubated for 48 hrs by MTT assay; type: functional, cell-based; details: HepG2, 48 h
[2] = tested on: HepG2; test: Inhibition of cell migration in human HepG2 cells at IC50 incubated for 48 hrs by phase contrast microscopy; type: functional
[3] = tested on: HepG2; test: Induction of apoptosis in human HepG2 cells assessed as increase in cleaved PARP-1 level at 2 uM incubated for 48 hrs by Western blot analysis; type: functional, cell-based
[4] = tested on: HepG2; test: Induction of cell cycle arrest in human HepG2 cells assessed as accumulation at S phase at 2 uM incubated for 24 hrs by flow cytometry analysis (reference value: 26.1%); type: functional
[5] = tested on: HepG2; test: Induction of cell cycle arrest in human HepG2 cells assessed as accumulation at G2 phase at 4 uM incubated for 24 hrs by flow cytometry analysis (reference value: 37.5%); type: functional
[6] = tested on: HepG2; test: Inhibition of EGFR/MAPK signalling pathway in human HepG2 cells assessed as reduction in phosphorylation of EGFR at 3 uM incubated for 48 hrs by Western blot analysis; type: cell-based
[7] = tested on: HepG2; test: Induction of cell cycle arrest in human HepG2 cells assessed as accumulation at S phase at 1 uM incubated for 24 hrs by flow cytometry analysis (reference value: 26.1%); type: functional
[8] = tested on: HepG2; test: Induction of cell cycle arrest in human HepG2 cells assessed as accumulation at S phase at 4 uM incubated for 24 hrs by flow cytometry analysis (reference value: 26.1%); type: functional
[9] = tested on: HepG2; test: Induction of apoptosis in human HepG2 cells assessed as increase in cleaved caspase-3 level at 2 uM incubated for 48 hrs by Western blot analysis; type: functional, cell-based
[10] = tested on: HepG2; test: Induction of cell cycle arrest in human HepG2 cells assessed as accumulation at G1 phase at 4 uM incubated for 24 hrs by flow cytometry analysis (reference value: 32.3%); type: functional
[11] = tested on: HepG2; test: Inhibition of EGFR/MAPK signalling pathway in human HepG2 cells assessed as reduction in ELK phosphorylation incubated for 24 hrs by Western blot analysis; type: cell-based
[12] = tested on: HepG2; test: Induction of cell cycle arrest in human HepG2 cells assessed as accumulation at G1 phase at 2 uM incubated for 24 hrs by flow cytometry analysis (reference value: 32.3%); type: functional
[13] = tested on: HepG2; test: Inhibition of EGFR/MAPK signalling pathway in human HepG2 cells assessed as reduction in phosphorylation of ERK 1/2 at 3 uM incubated up to 48 hrs by Western blot analysis; type: cell-based
[14] = tested on: HepG2; test: Inhibition of EGFR/MAPK signalling pathway in human HepG2 cells assessed as reduction in phosphorylation of B-RAF at 3 uM incubated for 24 hrs by Western blot analysis; type: cell-based
[15] = tested on: HepG2; test: Induction of cell cycle arrest in human HepG2 cells assessed as accumulation at G1 phase at 1 uM incubated for 24 hrs by flow cytometry analysis (reference value: 32.3%); type: functional
[16] = tested on: HepG2; test: Induction of cell cycle arrest in human HepG2 cells assessed as accumulation at G2 phase at 1 uM incubated for 24 hrs by flow cytometry analysis (reference value: 37.5%); type: functional
[17] = tested on: HepG2; test: Induction of cell cycle arrest in human HepG2 cells assessed as accumulation at G2 phase at 2 uM incubated for 24 hrs by flow cytometry analysis (reference value: 37.5%); type: functional
[18] = tested on: HepG2; test: Induction of apoptosis in human HepG2 cells assessed as increase in cleaved caspase-9 level at 2 uM incubated for 48 hrs by Western blot analysis; type: functional, cell-based
[19] = tested on: HepG2; test: Inhibition of EGFR/MAPK signalling pathway in human HepG2 cells assessed as reduction in phosphorylation of MEK at 3 uM incubated up to 48 hrs by Western blot analysis; type: cell-based
[20] = tested on: HepG2; test: Inhibition of EGFR/MAPK signalling pathway in human HepG2 cells assessed as reduction in phosphorylation of B-RAF at 2 uM incubated for 8 hrs by Western blot analysis; type: cell-based
[21] = tested on: HepG2; test: Inhibition of EGFR/MAPK signalling pathway in human HepG2 cells assessed as reduction in phosphorylation of ERK 1/2 at 2 uM incubated up to 48 hrs by Western blot analysis; type: cell-based
[22] = tested on: HepG2; test: Inhibition of EGFR/MAPK signalling pathway in human HepG2 cells assessed as reduction in phosphorylation of MEK at 2 uM incubated up to 48 hrs by Western blot analysis; type: cell-based
[23] = tested on: HepG2; test: Inhibition of EGFR/MAPK signalling pathway in human HepG2 cells assessed as reduction in phosphorylation of EGFR at 2 uM incubated for 2 hrs by Western blot analysis; type: cell-based

IC50 [1]: 8 µM
SMILES: COc1ccc2c(c1)CC[C@@H]1[C@@H]2CC[C@]2(C)C([C@](C)(O)C(=O)/C=C/c3ccc(F)cc3)=CC[C@@H]12

IC50 [1]: 3 µM
SMILES: COc1ccc2c(c1)CC[C@@H]1[C@@H]2CC[C@]2(C)C([C@](C)(O)C(=O)/C=C/c3ccc(C(F)(F)F)cc3)=CC[C@@H]12

IC50 [1]: 7 µM
SMILES: COc1ccc2c(c1)CC[C@@H]1[C@@H]2CC[C@]2(C)C([C@@](C)(O)C(=O)/C=C/c3ccc(F)cc3)=CC[C@@H]12

IC50 [1]: 2 µM
SMILES: COc1ccc2c(c1)CC[C@@H]1[C@@H]2CC[C@]2(C)C([C@@](C)(O)C(=O)/C=C/c3ccc(C(F)(F)F)cc3)=CC[C@@H]12

IC50 [1]: 32 µM
SMILES: COc1ccc2c(c1)CC[C@@H]1[C@@H]2CC[C@]2(C)C([C@@](C)(O)C(=O)/C=C/c3ccc(Br)cc3)=CC[C@@H]12

Further lines, the molecule ahead of its results:

SMILES: COc1ccc(/C=C/C(=O)[C@](C)(O)C2=CC[C@H]3[C@@H]4CCc5cc(OC)ccc5[C@H]4CC[C@]23C)cc1
IC50 [1]: 2 µM

SMILES: COc1ccc2c(c1)CC[C@@H]1[C@@H]2CC[C@]2(C)C([C@@](C)(O)C(=O)/C=C/c3ccc([N+](=O)[O-])cc3)=CC[C@@H]12
IC50 [1]: 20 µM

SMILES: COc1ccc(/C=C/C(=O)[C@@](C)(O)C2=CC[C@H]3[C@@H]4CCc5cc(OC)ccc5[C@H]4CC[C@]23C)cc1
IC50 [1]: 16 µM

SMILES: C#Cc1cccc(Nc2ncnc3cc(OCCOC)c(OCCOC)cc23)c1 [ERLOTINIB]
inhibition (INH) [2]: 93%

SMILES: COc1ccc2c(c1)CC[C@@H]1[C@@H]2CC[C@]2(C)C([C@@](C)(O)C(=O)/C=C/c3ccc(Cl)cc3)=CC[C@@H]12
IC50 [1]: 25 µM

SMILES: COc1ccc2c(c1)CC[C@@H]1[C@@H]2CC[C@]2(C)C([C@@](C)(O)C(=O)/C=C/c3ccc(Br)o3)=CC[C@@H]12
IC50 [1]: 6 µM

SMILES: COc1ccc2c(c1)CC[C@@H]1[C@@H]2CC[C@]2(C)C([C@](C)(O)C(=O)/C=C/c3ccc([N+](=O)[O-])cc3)=CC[C@@H]12
IC50 [1]: 29 µM

SMILES: COc1ccc2c(c1)CC[C@@H]1[C@@H]2CC[C@]2(C)C([C@@](C)(O)C(=O)/C=C/C(C)(C)O)=CC[C@@H]12
Activity [3]: Active
Activity [4]: 23.2%
Activity [5]: 21.1%
inhibition (INH) [2]: 100%
inhibition [6]: 90%
Activity [7]: 23.4%
Activity [8]: 37.4%
Activity [9]: Active
Activity [10]: 41.1%
inhibition [11]: Active
Activity [12]: 37.6%
inhibition [13]: Active
inhibition [14]: Active
IC50 [1]: 2 µM
Activity [15]: 36.1%
Activity [16]: 38%
Activity [17]: 34.1%
Activity [18]: Active
inhibition [19]: Active

SMILES: COc1ccc2c(c1)CC[C@@H]1[C@@H]2CC[C@]2(C)C([C@@](C)(O)C(=O)/C=C/c3ccc(Br)s3)=CC[C@@H]12
IC50 [1]: 0.7 µM

SMILES: COc1ccc2c(c1)CC[C@@H]1[C@@H]2CC[C@]2(C)C([C@](C)(O)C(=O)/C=C/C(C)(C)O)=CC[C@@H]12
inhibition [20]: Active
inhibition [2]: Active
inhibition [21]: Active
inhibition [22]: Active
inhibition [23]: Active
IC50 [1]: 3 µM

SMILES: COc1ccc2c(c1)CC[C@@H]1[C@@H]2CC[C@]2(C)C([C@](C)(O)C(=O)/C=C/c3ccc(Br)s3)=CC[C@@H]12
IC50 [1]: 11 µM
